pIC50: −log10 of the molar value. Converted amounts (≈) assume the structure as drawn.
Assays:
Enterococcus faecium = test: Antibacterial activity against Enterococcus faecium for 18 to 20 hrs by broth microdilution method; assay type: functional
[1] = Inhibition of Staphylococcus aureus topoisomerase 4 by fluorescence analysis
Staphylococcus aureus [2] = test: Antibacterial activity against methicillin-sensitive Staphylococcus aureus 42 for 18 to 20 hrs by broth microdilution method; assay type: functional
Streptococcus pneumoniae [3] = test: Antibacterial activity against Streptococcus pneumoniae for 18 to 24 hrs by broth microdilution method; assay type: functional
DNA gyrase subunit B = DNA gyrase subunit B (Staphylococcus aureus, UniProt P0A0K8); test: Inhibition of Staphylococcus aureus Gyrase B ATPase activity by fluorescence analysis
Staphylococcus aureus [4] = test: Antibacterial activity against methicillin and ciprofloxacin-resistant Staphylococcus aureus 1721 for 18 to 20 hrs by broth microdilution method; assay type: functional
Enterococcus faecalis = test: Antibacterial activity against Enterococcus faecalis for 18 to 20 hrs by broth microdilution method; assay type: functional
Staphylococcus aureus [5] = test: Antibacterial activity against methicillin-resistant Staphylococcus aureus 1118 for 18 to 20 hrs by broth microdilution method; assay type: functional
[6] = Half-life in mouse at 2 mg/kg, iv by LC-MS/MS analysis; assay type: ADME, organism-based; conditions: in vivo
Streptococcus pneumoniae [7] = test: Antibacterial activity against Streptococcus pneumoniae 402 infected in sc dosed mouse assessed as reduction in 2 log CFU in lung compound administered as BID for 1 day measured 24 hrs after last dose; assay type: functional
Streptococcus pneumoniae [8] = test: Antibacterial activity against Streptococcus pneumoniae 402 infected in sc dosed mouse assessed as reduction in 3 log CFU in lung compound administered as BID for 1 day measured 24 hrs after last dose; assay type: functional
Mus musculus = test: Dose-normalized AUC in mouse at 2 mg/kg, iv by LC-MS/MS analysis; assay type: ADME, organism-based; conditions: in vivo
[9] = Volume of distribution at steady state in mouse at 2 mg/kg, iv by LC-MS/MS analysis; assay type: ADME, organism-based; conditions: in vivo, read-out: Vdss
[10] = Clearance in mouse at 2 mg/kg, iv by LC-MS/MS analysis; assay type: ADME, organism-based; conditions: in vivo

DNA gyrase subunit B, sequence (P0A0K8 whole entry): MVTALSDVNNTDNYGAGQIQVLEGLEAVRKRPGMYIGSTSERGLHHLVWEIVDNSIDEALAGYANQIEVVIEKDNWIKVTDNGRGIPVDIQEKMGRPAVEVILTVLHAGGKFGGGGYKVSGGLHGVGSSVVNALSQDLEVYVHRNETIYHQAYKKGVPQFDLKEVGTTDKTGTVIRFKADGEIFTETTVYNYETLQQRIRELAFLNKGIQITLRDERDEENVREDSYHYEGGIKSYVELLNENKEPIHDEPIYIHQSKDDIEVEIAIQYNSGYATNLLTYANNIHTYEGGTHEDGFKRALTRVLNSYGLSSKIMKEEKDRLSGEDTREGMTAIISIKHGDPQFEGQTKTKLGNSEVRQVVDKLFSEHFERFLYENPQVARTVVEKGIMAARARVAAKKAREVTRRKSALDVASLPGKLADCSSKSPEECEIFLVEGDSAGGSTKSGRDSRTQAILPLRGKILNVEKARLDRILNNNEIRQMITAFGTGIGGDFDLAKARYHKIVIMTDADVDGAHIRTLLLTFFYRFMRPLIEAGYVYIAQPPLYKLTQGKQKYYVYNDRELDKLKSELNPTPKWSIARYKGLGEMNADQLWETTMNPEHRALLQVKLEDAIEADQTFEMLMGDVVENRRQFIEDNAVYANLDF

SMILES | MIC (Enterococcus faecium) [µg/mL] | pIC50 [1] | MIC (Staphylococcus aureus [2]) [µg/mL] | MIC (Streptococcus pneumoniae [3]) [µg/mL] | pIC50 (DNA gyrase subunit B) | MIC (Staphylococcus aureus [4]) [µg/mL] | MIC (Enterococcus faecalis) [µg/mL] | MIC (Staphylococcus aureus [5]) [µg/mL] | half-life [6] [min] | ED (Streptococcus pneumoniae [7]) [mg/kg] | ED (Streptococcus pneumoniae [8]) [mg/kg] | AUC/dose (Mus musculus) [µg·h/mL/mg/kg] | Vd [9] [L/kg] | clearance [10] [mL/min/kg]
CCCc1cccc2c(-c3cnc(-c4ccnc(C(=O)O)c4)s3)n[nH]c12 | > 8 | < 6.00 | > 8 | 1 (≈ 2.74 µM) | 7.96 | > 8 | > 8 | > 8 |  |  |  |  |  | 
CCCc1c(OC)ccc2c(-c3cnc(-c4ccc(C(=O)O)c(F)c4)s3)n[nH]c12 | 0.03 (≈ 0.0729 µM) |  | 0.06 (≈ 0.146 µM) | 0.125 (≈ 0.304 µM) | 7.82 | 0.125 (≈ 0.304 µM) | 0.03 (≈ 0.0729 µM) | 0.125 (≈ 0.304 µM) | 18.6 | 60.6 | 103.7 | 0.893 | 0.32 | 19
CCCc1c(O)ccc2c(-c3cnc(-c4cnc(C(=O)O)c(O)c4)s3)n[nH]c12 | 0.25 (≈ 0.631 µM) |  | 1 (≈ 2.52 µM) | 0.25 (≈ 0.631 µM) | 7.89 | 2 (≈ 5.05 µM) | 0.125 (≈ 0.315 µM) | 4 (≈ 10.1 µM) |  |  |  |  |  | 
CCCc1cccc2c(-c3cnc(-c4ccc(C(=O)NCCN5CCCCC5)nc4)s3)n[nH]c12 | > 8 | < 5.70 | 2 (≈ 4.21 µM) | > 8 | 7.70 | 2 (≈ 4.21 µM) | > 8 | 1 (≈ 2.11 µM) |  |  |  |  |  | 
CCCc1cccc2c(-c3cnc(-c4ccc(CO)nc4)s3)n[nH]c12 | > 8 | < 5.40 | 0.06 (≈ 0.171 µM) | 8 (≈ 22.8 µM) | 7.82 | 0.06 (≈ 0.171 µM) | > 8 | 0.06 (≈ 0.171 µM) |  |  |  |  |  | 
CCCc1cccc2c(-c3cnc(-c4ccc(COP(=O)(O)O)nc4)s3)n[nH]c12 | 2 (≈ 4.65 µM) | 6.83 | 0.25 (≈ 0.581 µM) | 2 (≈ 4.65 µM) | 8.05 | 0.5 (≈ 1.16 µM) | > 8 | 0.25 (≈ 0.581 µM) |  |  |  |  |  | 
CCCc1cccc2c(-c3cnc(-c4cnc(C(=O)O)c(O)c4)s3)n[nH]c12 | 0.125 (≈ 0.329 µM) | 7.22 | 0.125 (≈ 0.329 µM) | 0.5 (≈ 1.31 µM) | 7.96 | 0.125 (≈ 0.329 µM) | 0.125 (≈ 0.329 µM) | 0.06 (≈ 0.158 µM) |  |  |  |  |  | 
CCCc1cccc2c(-c3cncs3)n[nH]c12 | > 32 |  | > 32 | > 32 | 5.19 | > 32 | > 32 | > 32 |  |  |  |  |  | 
CCOc1cccc2c(-c3cnc(-c4ccc(C(=O)O)c(F)c4)s3)n[nH]c12 | 2 (≈ 5.22 µM) |  | 0.5 (≈ 1.3 µM) | 1 (≈ 2.61 µM) | > 8.10 | 1 (≈ 2.61 µM) | 1 (≈ 2.61 µM) | 0.5 (≈ 1.3 µM) |  |  |  |  |  | 
CCCOc1nccc2c(-c3cnc(-c4ccc(C(=O)O)nc4)s3)n[nH]c12 | 2 (≈ 5.24 µM) |  | 4 (≈ 10.5 µM) | 0.06 (≈ 0.157 µM) | > 8.10 | 8 (≈ 21 µM) | 2 (≈ 5.24 µM) | 4 (≈ 10.5 µM) |  |  |  |  |  | 
CCCc1cccc2c(-c3cnc(-c4ccc(C(=O)OC)nc4)s3)n[nH]c12 | > 8 | < 5.00 | 0.5 (≈ 1.32 µM) | 0.125 (≈ 0.33 µM) | 7.54 | 2 (≈ 5.28 µM) | > 8 | 1 (≈ 2.64 µM) |  |  |  |  |  | 
CCCOc1nccc2c(-c3cnc(-c4ccc(CO)nc4)s3)n[nH]c12 | 1 (≈ 2.72 µM) |  | 0.125 (≈ 0.34 µM) | 0.25 (≈ 0.68 µM) | > 8.10 | 0.125 (≈ 0.34 µM) | 0.25 (≈ 0.68 µM) | 0.25 (≈ 0.68 µM) |  |  |  |  |  | 
CCCc1cccc2c(-c3cnc(-c4cnc(C(=O)OC)c(O)c4)s3)n[nH]c12 | 2 (≈ 5.07 µM) | 7.17 | 1 (≈ 2.54 µM) | 1 (≈ 2.54 µM) | > 8.10 | 2 (≈ 5.07 µM) | 1 (≈ 2.54 µM) | 1 (≈ 2.54 µM) |  |  |  |  |  | 
CCCc1cccc2c(-c3cnc(-c4cnc(C(=O)O)c(F)c4)s3)n[nH]c12 | 0.25 (≈ 0.654 µM) | 7.62 | 0.125 (≈ 0.327 µM) | 0.25 (≈ 0.654 µM) | > 8.10 | 0.25 (≈ 0.654 µM) | 0.25 (≈ 0.654 µM) | 0.125 (≈ 0.327 µM) |  |  |  |  |  | 
CCOc1nccc2c(-c3cnc(-c4cnc(C(=O)O)cc4C)s3)n[nH]c12 | 0.5 (≈ 1.31 µM) |  | 0.25 (≈ 0.655 µM) | 0.125 (≈ 0.328 µM) | > 8.10 | 0.5 (≈ 1.31 µM) | 0.25 (≈ 0.655 µM) | 0.5 (≈ 1.31 µM) |  |  |  |  |  | 

Source: ChEMBL document CHEMBL3739399, “Discovery of Indazole Derivatives as a Novel Class of Bacterial Gyrase B Inhibitors” (ACS Med Chem Lett, 2015)
